The source of these data is US12577247B2 (BUGWORKS RESEARCH, INC., priority 2021, dated 2026).

Usually Papp A→B stands for how fast a substance crosses the layer from the apical side. Low readings indicate slow passage, high ones fast passage. The term Papp B→A denotes how fast a substance crosses the layer from the basolateral side. As a reminder, the hepatocyte CLint is the capacity of the preparation to metabolise the compound, expressed as a volume cleared per time. Low values mean greater metabolic stability, high ones faster metabolism. What is called clearance is the rate of elimination divided by the concentration. Read a low clearance as inefficient removal. As usually defined, the half-life is how long it takes for the measured level to halve. High values mean slow loss, low ones fast loss. The bioavailability is dose-corrected exposure relative to a reference, in per cent. As usually defined, the Tmax is the time from dosing to the highest level. The term IC50 denotes the point on the concentration scale where inhibition reaches its midpoint. What is called AUC(0-t) is exposure summed from dosing to a finite time, without extrapolation to infinity. A low value points to low exposure.

Data set [1] in a line: Cell based permeability/efflux Caco-2 assay. Type of data set: in vitro ADME. Particulars: human, Caco-2, 10 μM; for Papp A→B at 120 min, 10 µM: apical to basolateral; for Papp B→A at 120 min, 10 µM: basolateral to apical. How it is done: Briefly, Permeability in a Caco-2 monolayer was determined at 10 μM. High density Caco-2 cells were obtained with fluent monolayer with trans epithelial electrical resistance (TEER) values greater than 350 ohm·cm^2 in the assay at 21 days of culture in 24 or 96 well insert plates. TEER was measured both before and after performing all the transport experiments. […] Transport buffer, 800 μL Hanks balanced salt sodium (HBSS) (pH 7.4) consisting of 10 mM HEPES without proteins was first dispensed to the basal side of the monolayer. The assay was then initiated by adding 200 μL, of compound solution to the apical side (all test compounds were diluted in HBSS, pH 6.5, with 1% DMSO as co-solvent). Two μL and 200 μL of samples were withdrawn before and at 45- and 120-min post addition of test compound, from the apical donor compartment and the base lateral receiver compartment, respectively. The transwell plates were kept for 120 min of incubation time at 37° C., 5% CO2, 95% relative humidity. At the end of incubation, sample solutions from both donor and receiver wells were mixed with acetonitrile containing internal standard (IS) immediately. Samples were analyzed including starting dosing solution, donor solution, and receiver solution by LC/MS/MS (API-4500). Concentrations of test compound was expressed as area ratio of analytes versus internal standard (IS).
A passive permeability was determined by complete chemical inhibition of the three major efflux transporters, ABCB1 (P-gp), ABCG2 (BCRP) and […] in Caco-2 cells using a cocktail of chemical inhibitors quinidine (P-gp), sulfasalazine (BCRP) and benzbromarone (MRP2)
The mean apparent permeability (Papp, X 10^−[…]) is calculated as follows
[formula] Where dq/dt=rate of transport (rate of transport of compound in the receiver compartment), Co=initial concentration in the donor compartment, A=surface area of the effective filter membrane. Plot the cumulative amount of transported drug against time to obtain rate transport. The percent recovery was calculated using the following equation

A further data set deals with Rat hepatocytes. Nature of the data set: Metabolic stability and intrinsic clearance in rat hepatocytes (with IVIVE). Particulars: Rat; for Predicted CLh: IVIVE from hepatocyte CLint; for Hepatocyte Clint: Table 6 (IVIVE). Type of data set: in vitro ADME. Here is the method:
(§1) The metabolic stability was expressed as the percentage of parent remaining is calculated from the peak area ratio of NCE remaining after incubation (tx) compared to the time zero (t0) incubation. The percentage of parent test compound remaining at each time point was calculated by comparing the peak area ratio of test compound after incubation (tx) with peak area of time zero (t0) incubation. Similarly, half-life (t½) was calculated using following equation:
(§2) [formula] The intrinsic clearance (Clint) was calculated using the following equations:
(§3) [formula] Scaling factors to represent […] million cells/gm liver and liver/kg body wt.

Assay in data set [2]: as above
Particulars: Rat hepatocytes. Type of data set: in vitro ADME. Here is the method: as §1, §2, §3

A short description of data set [3]: Pharmacokinetic study in mice. It is filed as in vivo, CD1 mice. Particulars: for Cmax / Tmax: po. Here is the method: Intravenous (i.v) and Oral formulations for pharmacokinetic (PK) studies was formulated in different vehicles and excipients to achieve the desirable solubility for intravenous and Oral routes of administration.
Appropriate amount of the test compound was weighed and dissolved in required volume of the vehicles, followed by vertexing for a few seconds to dissolve the compound. Then the solution (or) suspension was sonicated at room temperature for 5 minutes to obtain a visually clear solution and or homogenous suspension. All the formulations were prepared freshly at room temperature before dosing.
The rodent pharmacokinetic studies were carried out in male Sprague-Dawley (SD) rats (8-12 weeks of age, weighing 280±20 g at the time of dosing) and CD1 mice (8-12 weeks of age, weighing 30-35 g body weight at the time of dosing) to estimate the plasma clearance, volume of distribution and terminal half-life, area under curve (AUC) and peak plasma concentration (Cmax) and time of peak plasma concentration (Tmax) following intravenous and oral routes of administration. The detailed experimental design is described in the Table 8 below.
Rats were anaesthetized by Isoflurane anaesthesia. The jugular and femoral veins of rat were cannulated, and the study was performed 48 h post cannulation. At each time point about 100 μL, of rat blood was collected from the jugular vein into a labelled microfuge tube containing 200 mM K2EDTA solution (20 μL, per mL of blood) and equivalent volume of heparinized saline was replaced following sample collection. Similarly, 25 μL, of mice blood was collected from the saphenous vein into a labelled microfuge tube containing 200 mM K2EDTA solution
Serial blood sampling method was used for blood collection. Blood samples were collected at pre-dose, 0.25 h, 0.5, 1, 2, 4, 6, 8 and 24-hours post dose. The blood samples were processed to obtain the plasma samples within 30 min of scheduled sampling time. All plasma samples were stored −70° C. until bioanalysis.
Plasma samples were analysed for a fit-for purpose LC-MS/MS method with a lower limit of quantification. The pharmacokinetic parameters were calculated using the non-compartmental analysis tool of validated Phoenix® WinNonlin® software (Certara, USA version 8.4) with linear up and log down method for estimating AUC.
All animals in intravenous (IV bolus) group were under fed state and animals in oral groups were fasted overnight (min 12 hr) before dose administration and food was provided 4 h post dose administration. All animals were received water ad libitum during the study period. The mean (±SD) pharmacokinetic parameters of Example 13, Example 122b & Example 39 following IV bolus and Oral dose administration in Mice/Rat and Dog is provided in Table-9.

For a further data set, the target named is T1, A2A receptor (Homo sapiens, UniProt P29274).
T1 construct: host or cells: HEK-293
Nature of the data set: A2aR antagonism IC50, cAMP TR-FRET in HEK-293 cells, high concentration of adenosine (30 μM).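 Further: compounds added 10 min before adenosine, then 30 min stimulation at room temperature in buffer with 100 µM rolipram and 30 µM EHNA, signal read 1 h after detection reagents.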 Type of data set: cell-based. Particulars: HEK-293 cells expressing A2A receptor; agonist adenosine 30 μM; 2% HSA; inhibition of cAMP; read-out: A2AR IC50 (nM) (@30 μM Adenosine). (In general: TR-FRET usually uses a lanthanide donor and a delayed reading to cut background.)

For another data set, the target named is T2, A2B receptor (Homo sapiens, UniProt P29275).
T2 sequence (P29275 1-332): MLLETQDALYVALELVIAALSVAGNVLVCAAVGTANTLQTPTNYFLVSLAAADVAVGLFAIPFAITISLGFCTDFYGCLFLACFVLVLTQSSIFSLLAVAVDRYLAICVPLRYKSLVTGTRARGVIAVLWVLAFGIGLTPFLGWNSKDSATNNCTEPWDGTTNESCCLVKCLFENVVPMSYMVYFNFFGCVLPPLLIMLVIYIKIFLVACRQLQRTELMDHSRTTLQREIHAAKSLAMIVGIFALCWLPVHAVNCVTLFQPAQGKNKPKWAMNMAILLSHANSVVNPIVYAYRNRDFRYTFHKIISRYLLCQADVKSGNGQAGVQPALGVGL
Kind of data set: A2bR antagonism IC50, cAMP TR-FRET in HEK-293 cells, high concentration of adenosine (30 μM).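 Further: compounds preincubated 10 min with cells, then adenosine stimulation 30 min at room temperature in buffer with Rolipram 100 µM and EHNA 30 µM, TR-FRET read after 1 h.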 Particulars: A2BR IC50 (nM) (@30 μM Adenosine), HEK-293 cells expressing A2B receptor; agonist adenosine 30 μM; 2% HSA; inhibition of cAMP.

[4] abbreviates: CD1, mouse, plasma, iv, i.v, 15 mg/kg.
Setting [5] is: CD1, mouse, plasma, 30 mg/kg, p.o, 30 mg/kg, read-out: Cmax (head Co*/).
Setting [6] is: CD1, mouse, plasma, 30 mg/kg, p.o, 30 mg/kg, read-out: Tmax (head Tma).

Read-outs that look alike come from different tables or passages of the source. Where only a bound is given, the exact number is not on record here.

T1 sequence (P29274 whole entry): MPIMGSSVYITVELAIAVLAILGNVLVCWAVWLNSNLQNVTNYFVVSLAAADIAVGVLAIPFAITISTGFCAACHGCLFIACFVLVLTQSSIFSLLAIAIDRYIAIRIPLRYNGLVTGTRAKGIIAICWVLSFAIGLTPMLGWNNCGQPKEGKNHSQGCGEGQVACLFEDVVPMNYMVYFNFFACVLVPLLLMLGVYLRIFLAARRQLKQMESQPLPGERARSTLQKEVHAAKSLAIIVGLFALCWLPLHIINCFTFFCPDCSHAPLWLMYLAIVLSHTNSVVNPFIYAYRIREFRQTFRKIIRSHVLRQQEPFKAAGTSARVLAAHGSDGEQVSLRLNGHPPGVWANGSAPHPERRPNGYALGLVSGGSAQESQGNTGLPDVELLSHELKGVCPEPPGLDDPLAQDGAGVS

In data set [1], `CCc1c(C)nn2c(N)c(C#N)c(NCCc3ccn(C4(CO)CC4)n3)nc12` [Example 39, 7-amino-3-ethyl-5-((2-(1-(1-(hydroxymethyl)cyclopropyl)-1H-pyrazol-3-yl)ethyl)amino)-2-methylpyrazolo[1,5-a] pyrimidine-6-carbonitrile] gave a Papp A→B at 120 min, 10 µM of 18.4 ×10⁻⁶ cm/s and a Papp B→A at 120 min, 10 µM of 18.5 ×10⁻⁶ cm/s. Besides, in the data set with Rat hepatocytes, the “Predicted CLh” value was 23 mL/min/kg and the “Hepatocyte Clint” value is given as less than 8.2 μl/min/10^6. In addition, the hepatocyte CLint at 0.5 μM in data set [2] is less than 8.2 µL/min/1e6 cells. Besides, in data set [3] (setting [4]), the clearance was 58 ± 14 mL/min/kg and the half-life was 54 min. The Vd in data set [3] (CD1, mouse, plasma, iv, i.v, 15 mg/kg, read-out: Vss) came out at 1 L/kg. Further, the bioavailability in data set [3] (CD1, mouse, plasma, oral 30 mg/kg vs IV bolus 15 mg/kg, read-out: % F (bioavailability)) was determined as 15%. Besides, in data set [3] (setting [5]), the Cmax was determined as 3300 ng/mL. Moreover, the Tmax in data set [3] (setting [6]) is 12 min. In addition, in data set [3] (i.v, 15 mg/kg), the “Co (head Co*/)” value is 2236 ng/m. The “Oral exposure in mice” value in data set [3] (oral, compared with Example 13) is “High oral exposure”. Also, the IC50 at A2A receptor was 120 nM. At A2B receptor, this compound registered an IC50 of 1830 nM.
In data set [1], `CCc1c(C)nn2c(N)c(C#N)c(NCCc3ccn(C4COCC4CO)n3)nc12` (single isomer, unassigned; (-)) [Example 122b, (−)-7-amino-3-ethyl-5-((2-(1-(4-(hydroxymethyl)tetrahydrofuran-3-yl)-1H-pyrazol-3-yl)ethyl)amino)-2-methyl pyrazolo[1,5-a]pyrimidine-6-carbonitrile] gave a Papp A→B at 120 min, 10 µM of 14.4 ×10⁻⁶ cm/s. The compound further yielded a Papp B→A at 120 min, 10 µM in data set [1] of 15.9 ×10⁻⁶ cm/s. The “Predicted CLh” value in the data set on Rat hepatocytes is listed as 16 mL/min/kg. For the same compound, in the data set with Rat hepatocytes, the “Hepatocyte Clint” value turned out to be 4.7 μl/min/10^6. Besides, in data set [2], the hepatocyte CLint at 0.5 μM is 4.7 µL/min/1e6 cells. Further, the AUC(0-t) in data set [3] (CD1, mouse, plasma, 100 mg/kg oral) worked out at 10500 ng·h/mL. The Cmax in data set [3] (CD1, mouse, plasma, 100 mg/kg, 100 mg/kg oral, read-out: C. (Cmax)) was found to be 13800 ng/mL; in data set [3] (CD1, mouse, plasma, 100 mg/kg, p.o, 100 mg/kg, read-out: Cmax (head Co*/)), 13800 ng/mL. Besides, the Tmax was found to be 15 min in data set [3] (CD1, mouse, plasma, 100 mg/kg, 100 mg/kg oral, read-out: Tmax) and 12 min in data set [3] (CD1, mouse, plasma, 100 mg/kg, p.o, 100 mg/kg, read-out: Tmax (head Tma)). For the same compound, the IC50 turned out to be 130 nM at A2A receptor and 521 nM at A2B receptor.
On to `Cc1cccc(CCNc2nc3c(C)c(C)nn3c(N)c2C#N)n1` [Example 13, 7-amino-5-((2-(6-methylpyridin-2-yl)ethyl)amino)-2,3-dimethylpyrazolo[1,5-a]pyrimidine-6-carbonitrile], for which, in data set [1], the Papp A→B at 120 min, 10 µM worked out at 58 ×10⁻⁶ cm/s and the Papp B→A at 120 min, 10 µM came out at 19.5 ×10⁻⁶ cm/s. For the same compound, in the data set with Rat hepatocytes, the “Predicted CLh” value is listed as 41 mL/min/kg and the “Hepatocyte Clint” value amounted to 34 μl/min/10^6. In addition, in data set [2], the hepatocyte CLint at 0.5 μM worked out at 34 µL/min/1e6 cells. For the same compound, the Cmax in data set [3] (setting [5]) amounted to 236 ng/mL. Besides, in data set [3] (setting [6]), the Tmax amounted to 12 min. Moreover, the IC50 on A2A receptor came out at 300 nM. For the same compound, the IC50 at A2B receptor is 2320 nM.
